Data: US20120295920A1, “5-AMINO-4-HYDROXYPENTOYL AMIDES” (priority 2009, published 2012)
Like-named read-outs stand apart in the source and are kept apart here.

Columns and labels:
[1] = test system: HIV-1 Strain B (M046I, I050V); assay: microbe, parasite or virus in culture; assay type: cell-based
In short: (§1)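 MT4 cells stably carrying an HIV LTR-driven EGFP reporter (150,000 cells/ml) were infected at MOI 0.0025 with or without inhibitor dilutions. Replication was read either as GFP fluorescence on day 3 post-infection or as cell viability by resazurin on day 4.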

[2] = test system: HIV-1 Strain C (G048G/V, V082A); assay: microbe, parasite or virus in culture; assay type: cell-based
In short: as §1

[3] = test system: HIV-1 Strain A (M046I, I084V); assay: microbe, parasite or virus in culture; assay type: cell-based
In short: as §1

[4] = General toxicity assay on mock-infected MT4 cells with CMV-EGFP reporter (CC50); assay type: cell-based; details: human; mock-infected MT4 cells with CMV-EGFP reporter; read-out: TOX-MT4CMV (CC50)
[5] = test system: HIV-1 wild-type strain; assay: General antiviral assay, cell-based virus replication in MT4-LTR-EGFP cells, wild-type strain
In short: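 HIV LTR-driven EGFP reporter MT4 cells (150,000 cells/ml) infected at MOI 0.0025 with or without inhibitor at various concentrations. Read-out either GFP fluorescence on day 3 post-infection or resazurin cell viability on day 4.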

[6] = test system: HIV-1 IIIB; assay: 50% HS-Rezazurin: antiviral assay in the presence of 50% human serum, MT-4 cells, resazurin cell viability; assay type: cell-based
In short: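 MT-4 cells infected with HIV-1 IIIB (MOI 0.001 to 0.01 CCID50/cell) for 1 h, washed, then plated onto serial compound dilutions in 50% human serum (10% FCS alternative). After 4 days, EC50 derived from resazurin cell viability.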

[7] = test system: mock-infected MT4 cells; assay: General toxicity assay on mock-infected MT4 cells with CMV-EGFP reporter (CC50); assay type: cell-based
[8] = clinical isolate Strain B, read-out: B EC50
[9] = clinical isolate Strain C, read-out: C EC50
[10] = clinical isolate Strain A, read-out: A EC50
[11] = mock-infected MT4 cells with CMV-EGFP reporter, read-out: TOX-MT4CMV (CC50)
[12] = wild-type strain IIIB, MT4-LTR-EGFP cells
[13] = MT4LTR cells, read-out: TOX-MT4LTR (CC50)

Row | SMILES | EC50 ([1]; Human immunodeficiency virus 1, read-out: B EC50) [nM] | EC50 ([2]; Human immunodeficiency virus 1, read-out: C EC50) [nM] | EC50 ([3]; Human immunodeficiency virus 1, read-out: A EC50) [nM] | CC50 [4] [nM] | EC50 ([5]; Human immunodeficiency virus 1, wild-type strain IIIB, MT4-LTR-EGFP cells) [nM] | EC50 ([6]; Human immunodeficiency virus 1, IIIB, MT4, 96 h) [nM] | EC50 [1, 8] [nM] | EC50 [2, 9] [nM] | EC50 [3, 10] [nM] | CC50 [7, 11] [nM] | EC50 [5, 12] [nM] | EC50 [6] [nM] | CC50 [7, 13] [nM] | EC50 ([5]; read-out: HIV-IIIB EC50) [nM]
1 | COC(=O)N[C@H](C(=O)N[C@@H](Cc1ccc(-c2cnc(C(C)C)s2)cc1)[C@@H](O)C[C@@H](Cc1ccccc1F)C(=O)N[C@H]1c2cc(Cl)ccc2OC[C@H]1O)C(C)(C)C [Compound 32] | 3.7 | 3.1 | 5 | 2200 | 5.9 | 28.6 |  |  |  |  |  |  |  | 
2 | COC(=O)NC(C(=O)NC(Cc1ccc(-c2ccc(OC)nc2)cc1)C(O)CC(Cc1ccccc1F)C(=O)NC1c2ccccc2OCC1O)C(C)(C)C (centres unmarked) [Compound 16] |  |  |  |  |  |  | 1.3 | 1.1 | 2 | > 32000 | 2.5 | 6.6 |  | 
3 | COC(=O)N[C@H](C(=O)N[C@@H](Cc1ccc(-c2cnc(OC)nc2)cc1)[C@@H](O)C[C@@H](Cc1ccccc1F)C(=O)N[C@H]1c2cc(Cl)ccc2OC[C@H]1O)C(C)(C)C [Compound 48] |  |  |  |  |  |  | 2.2 | 1.3 | 2.6 |  | 3.8 | 7.5 | > 32000 | 
4 | COC(=O)N[C@H](C(=O)N[C@@H](Cc1ccc(-c2ccc(OC)nc2)cc1)[C@@H](O)C[C@@H](Cc1ccccc1Cl)C(=O)N[C@H]1c2cc(Cl)ccc2OC[C@H]1O)C(C)(C)C [Compound 58] |  |  |  |  |  |  | 2.5 | 1.8 | 6 |  | 3.9 | 13.3 | > 32000 | 
5 | COC(=O)N[C@H](C(=O)N[C@@H](Cc1ccc(-c2cnc(N(C)C)nc2)cc1)[C@@H](O)C[C@@H](Cc1cccc(OC(F)(F)F)c1)C(=O)N[C@H]1c2cc(Cl)ccc2OC[C@H]1O)C(C)(C)C [Compound 49] |  |  |  |  |  |  | 3.5 | 2.9 | 5.2 |  | 4.1 | 19 | > 32000 | 
6 | COCCOC(=O)N[C@H](C(=O)N[C@@H](Cc1ccc(-c2ccc(OC)nc2)cc1)[C@@H](O)C[C@@H](Cc1ccccc1F)C(=O)N[C@H]1c2cc(Cl)ccc2OC[C@H]1O)C(C)(C)C [Compound 55] |  |  |  |  |  |  | 1.5 | 1.2 | 2.1 |  | 2.7 | 12.5 | > 32000 | 
7 | COC(=O)N[C@H](C(=O)N[C@@H](Cc1ccc(-c2cnc(C3CC3)s2)cc1)[C@@H](O)C[C@@H](Cc1ccccc1F)C(=O)N[C@H]1c2cc(Cl)ccc2OC[C@H]1O)C(C)(C)C [Compound 28] |  |  |  |  |  |  | 2.1 | 1.4 | 3.1 | > 32000 | 3.2 | 22.5 |  | 
8 | COc1ccc(-c2ccc(C[C@H](NC(=O)O[C@H]3CO[C@H]4OCC[C@H]43)[C@@H](O)C[C@@H](Cc3ccccc3F)C(=O)N[C@H]3c4cccc(Cl)c4OC[C@H]3O)cc2)cn1 [Compound 75] |  |  |  |  |  |  | 0.9 | 0.8 | 1.4 |  | 2.4 | 9.3 | > 32000 | 
9 | COc1ccc(-c2ccc(C[C@H](NC(=O)O[C@H]3CO[C@H]4OCC[C@H]43)[C@@H](O)C[C@@H](Cc3ccccc3Cl)C(=O)N[C@H]3c4cc(F)ccc4OC[C@H]3O)cc2)cn1 [Compound 77] |  |  |  |  |  |  | 1 | 0.7 | 1.6 |  | 1.9 | 6.5 | > 32000 | 
10 | COc1ccc(-c2ccc(C[C@H](NC(=O)O[C@H]3CO[C@H]4OCC[C@H]43)[C@@H](O)C[C@@H](Cc3cccc(OC(F)(F)F)c3)C(=O)N[C@H]3c4cc(Cl)ccc4OC[C@H]3O)cc2)cn1 [Compound 73] |  |  |  |  |  |  | 4.1 | 1.9 | 3.7 |  | 3.3 | 9.2 | > 32000 | 
11 | COC(=O)N[C@H](C(=O)N[C@@H](Cc1ccc(-c2ccc(N(C)C)nc2)cc1)[C@@H](O)C[C@@H](Cc1ccccc1F)C(=O)N[C@H]1c2ccc(Cl)cc2OC[C@H]1O)C(C)(C)C [Compound 86] |  |  |  |  |  |  | 1.4 | 1.3 | 7.5 |  | 2.6 | 17.1 | > 32000 | 
12 | COC(=O)N[C@H](C(=O)N[C@@H](Cc1ccc(-c2ccc(OC)nc2)cc1)[C@@H](O)C[C@@H](Cc1ccccc1F)C(=O)N[C@H]1c2cc(C)ccc2OC[C@H]1O)C(C)(C)C [Compound 66] |  |  |  |  |  |  | 0.8 | 0.5 | 0.8 |  | 0.9 | 7.7 | > 32000 | 
13 | COC(=O)N[C@H](C(=O)N[C@@H](Cc1ccccc1)[C@@H](O)CN(Cc1ccc(-c2ccccn2)cc1)NC(=O)[C@@H](NC(=O)OC)C(C)(C)C)C(C)(C)C [ATV] |  |  |  |  |  |  | 3.3 | 62 | 59 | 26000 | 7.6 | 16 | > 32000 | 
14 | COC(=O)N[C@H](C(=O)N[C@@H](Cc1ccc(-c2ccc(OC)nc2)cc1)[C@@H](O)C[C@@H](Cc1ccccc1Cl)C(=O)N[C@H]1c2ccccc2OC[C@H]1O)C(C)(C)C [Compound 37] |  |  |  |  |  |  | 0.9 | 0.8 | 2.5 | > 32000 | 1.7 | 4.6 | > 32000 | 
15 | CCc1ncc(-c2ccc(C[C@H](NC(=O)[C@@H](NC(=O)OC)C(C)(C)C)[C@@H](O)C[C@@H](Cc3ccccc3F)C(=O)N[C@H](C(=O)NC)C(C)(C)C)cc2)s1 [Compound 84] |  |  |  |  |  |  | 3.3 | 2.4 | 4.7 | > 32000 | 6.4 | 28 |  | 
16 | COC(=O)N[C@H](C(=O)N[C@@H](Cc1ccc(-c2cc(C)nc(C)c2)cc1)[C@@H](O)C[C@@H](Cc1ccccc1F)C(=O)N[C@H]1c2cccc(Cl)c2OC[C@H]1O)C(C)(C)C [Compound 54] |  |  |  |  |  |  | 2.1 | 1.6 | 2.7 |  | 4.8 | 19.8 | > 32000 | 
17 | COC(=O)NC(C(=O)NC(Cc1ccc(-c2ccc(OC)nc2)cc1)C(O)CC(Cc1cccc(OC)c1)C(=O)NC1c2ccccc2OCC1O)C(C)(C)C (centres unmarked) [Compound 17] |  |  |  |  |  |  | 1.2 | 1.1 | 2 | > 32000 | 1.9 | 6.4 |  | 
18 | COC(=O)N[C@H](C(=O)N[C@@H](Cc1ccc(-c2cnc(C)s2)cc1)[C@@H](O)C[C@@H](Cc1ccccc1F)C(=O)N[C@H]1[C@H](C)CC[C@H]1O)C(C)(C)C [Compound 83] |  |  |  |  |  |  | 2.5 | 2.7 | 8.3 | > 32000 | 4 | 14.3 |  | 
19 | COc1cccc(C[C@H](C[C@H](O)[C@H](Cc2ccc(-c3csc(N(C)C)n3)cc2)NC(=O)O[C@H]2CO[C@H]3OCC[C@H]32)C(=O)N[C@H]2c3cc(Cl)ccc3OC[C@H]2O)c1 [Compound 71] |  |  |  |  |  |  | 2.3 | 1 | 2.2 | > 32000 | 2.1 | 10.9 | > 32000 | 
20 | COC(=O)N[C@H](C(=O)N[C@@H](Cc1ccc(-c2ccc(OC)nc2)cc1)[C@@H](O)C[C@@H](Cc1cccc(OC(F)(F)F)c1)C(=O)N[C@H]1c2cc(Cl)ccc2OC[C@H]1O)C(C)(C)C [Compound 42] |  |  |  |  |  |  | 4.1 | 3.9 | 7.2 | > 32000 | 4.2 | 23.7 | > 32000 | 
21 | COC(=O)N[C@H](C(=O)N[C@@H](Cc1ccc(-c2cnc(OC(C)C)cn2)cc1)[C@@H](O)C[C@@H](Cc1cccc(F)c1)C(=O)N[C@H]1c2cc(Cl)ccc2OC[C@H]1O)C(C)(C)C [Compound 46] |  |  |  |  |  |  | 5.6 | 3.7 | 9.4 |  | 5.3 | 34.6 | 10000 | 
22 | COC(=O)NC(C(=O)NC(Cc1ccc(-c2cnc(C)s2)cc1)C(O)CC(Cc1ccccc1F)C(=O)NC1c2cc(Cl)ccc2OCC1O)C(C)(C)C (centres unmarked) [Compound 11] |  |  |  |  |  |  | 3.5 | 2.1 | 3.9 | > 32000 | 4.2 | 22.4 |  | 
23 | COC(=O)NC(C(=O)NC(Cc1ccc(-c2cc(C)nc(C)c2)cc1)C(O)CC(Cc1ccccc1F)C(=O)NC1c2cc(Cl)ccc2OCC1O)C(C)(C)C (centres unmarked) [Compound 12] |  |  |  |  |  |  | 3 | 2.2 | 3.7 | > 32000 | 4 | 35.7 |  | 
24 | COC(=O)NC(C(=O)NC(Cc1ccc(-c2ccnc(C)c2)cc1)C(O)CC(Cc1cccc(Cl)c1)C(=O)NC1c2ccccc2OCC1O)C(C)(C)C (centres unmarked) [Compound 1] |  |  |  |  |  |  | 4.8 | 3.7 | 5.7 | > 32000 |  | 39.3 |  | 7.7
25 | COCCOC(=O)N[C@H](C(=O)N[C@@H](Cc1ccc(-c2ccc(N(C)C)nc2)cc1)[C@@H](O)C[C@@H](Cc1ccccc1F)C(=O)N[C@H]1c2cc(F)ccc2OC[C@H]1O)C(C)(C)C [Compound 34] |  |  |  |  |  |  | 1.5 | 1.3 | 2 | > 32000 | 2.7 | 10 | > 32000 | 
